Results reported in US11472815B2, “1,4-diphenyl-1H-imidazole and 2,4-diphenylthiazole derivatives and preparation method therefor and use thereof” (SOUTHERN MEDICAL UNIVERSITY, priority 2018, dated 2022).

target: TLR1/2 (Homo sapiens (Human), UniProt O60603+Q15399); experiment: Detection of TLR1/2 activation activity (SEAP signal) using TLR1/2 HEK BLUE cells; assay type: cell-based; conditions: not given
Method: TLR1/2 activation activity was detected using TLR1/2 HEK BLUE cells. TLR1/2 HEK BLUE cells were cultured in DMEM medium containing 10% fetal bovine serum, 1% penicillin and streptomycin, and incubated in a 37° C. cell incubator containing 5% CO2.
HEK BLUE TLR1/2 cells were spread in a 384-well plate at 20,000 cells/well, cultured at 37° C., 5% CO2 for 24 hours, 25 μL per well. When the cells grew well, 100 μM compound and doubling-diluted for 11 concentration gradients. After the cells were kept for 24 hours in the CO2 incubator, 40 μL of indigo blue solution was added to each well of the plate in the dark, and reading was conducted 4 times in an interval of 15 minutes at 620 nm to detect the signal intensity of SEAP in the cell supernatant.

TLR1/2, sequence (Q15399 25-786): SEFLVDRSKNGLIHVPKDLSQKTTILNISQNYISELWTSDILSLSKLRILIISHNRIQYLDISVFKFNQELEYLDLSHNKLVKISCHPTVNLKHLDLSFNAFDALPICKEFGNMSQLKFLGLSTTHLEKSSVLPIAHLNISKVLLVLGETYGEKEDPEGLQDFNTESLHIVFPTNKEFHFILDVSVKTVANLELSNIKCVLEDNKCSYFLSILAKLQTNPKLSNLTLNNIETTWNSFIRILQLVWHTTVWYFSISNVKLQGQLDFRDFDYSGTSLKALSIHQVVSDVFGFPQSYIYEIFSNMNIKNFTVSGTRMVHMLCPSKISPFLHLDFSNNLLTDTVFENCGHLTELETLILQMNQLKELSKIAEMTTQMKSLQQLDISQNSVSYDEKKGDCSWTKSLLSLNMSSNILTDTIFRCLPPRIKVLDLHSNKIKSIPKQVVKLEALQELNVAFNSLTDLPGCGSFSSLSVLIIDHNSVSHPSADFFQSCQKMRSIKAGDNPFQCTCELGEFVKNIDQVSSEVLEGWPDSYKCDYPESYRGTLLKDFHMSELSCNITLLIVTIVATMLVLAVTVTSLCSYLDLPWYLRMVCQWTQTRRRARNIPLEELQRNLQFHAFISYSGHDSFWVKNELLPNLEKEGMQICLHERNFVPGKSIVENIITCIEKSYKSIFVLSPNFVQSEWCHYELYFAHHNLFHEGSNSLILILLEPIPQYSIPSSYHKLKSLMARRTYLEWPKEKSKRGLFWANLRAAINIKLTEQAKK
TLR1/2, sequence (O60603 19-784): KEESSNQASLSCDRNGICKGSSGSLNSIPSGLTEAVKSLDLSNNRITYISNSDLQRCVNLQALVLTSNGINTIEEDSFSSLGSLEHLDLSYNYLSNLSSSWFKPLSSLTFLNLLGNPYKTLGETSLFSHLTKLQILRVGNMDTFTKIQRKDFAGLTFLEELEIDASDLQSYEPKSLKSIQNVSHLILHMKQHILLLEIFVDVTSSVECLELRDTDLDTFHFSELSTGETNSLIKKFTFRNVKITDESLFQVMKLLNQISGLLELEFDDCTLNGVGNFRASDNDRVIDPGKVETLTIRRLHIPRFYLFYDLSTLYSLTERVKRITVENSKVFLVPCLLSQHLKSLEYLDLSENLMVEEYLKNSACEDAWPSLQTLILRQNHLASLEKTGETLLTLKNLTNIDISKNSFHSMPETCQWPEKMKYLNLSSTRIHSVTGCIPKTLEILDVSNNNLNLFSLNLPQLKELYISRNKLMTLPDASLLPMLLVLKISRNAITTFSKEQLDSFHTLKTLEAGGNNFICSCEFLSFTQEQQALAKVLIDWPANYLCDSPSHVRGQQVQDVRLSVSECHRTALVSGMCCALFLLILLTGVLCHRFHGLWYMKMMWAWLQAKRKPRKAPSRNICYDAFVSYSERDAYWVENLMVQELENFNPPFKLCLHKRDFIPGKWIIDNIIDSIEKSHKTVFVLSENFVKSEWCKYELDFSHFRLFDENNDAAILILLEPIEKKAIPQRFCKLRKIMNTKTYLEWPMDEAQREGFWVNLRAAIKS

`CNc1ccc([N+](=O)[O-])cc1-n1cnc(-c2ccc(C(F)(F)F)cc2O)c1` [Compound 22, 2-(1-(2-(methylamino)-5-nitrophenyl)-1H-imidazol-4-yl)-5-(trifluoromethyl)phenol] was tested, and the “TLR1/2 activation (in words)” value was “activates TLR1/2 activity in a concentration-dependent manner”.

same assay, conditions: HEK BLUE TLR1/2 cells, 24 hours, SEAP read at 620 nm; highest concentration 100 μM; [‡] highest SEAP signal less than 50% of the activation value of compound 22

`FC(F)(F)c1ccc(-c2csc(-c3ccccc3)n2)cc1` [Compound 3, 2-phenyl-4-(4-(trifluoromethyl)phenyl)thiazole] and `FC(F)(F)c1ccc(-c2csc(-c3cccc(C(F)(F)F)c3)n2)cc1` [Compound 4, 2-(3-(trifluoromethyl)phenyl)-4-(4-(trifluoromethyl)phenyl)thiazole] cannot be ordered by EC50: over 1000 nM for the first, over 1000 nM for the second.

Compared with `CNc1ccc([N+](=O)[O-])cc1-n1cnc(-c2ccc(OC(F)(F)F)cc2O)c1` [Compound 21, 2-(1-(2-(methylamino)-5-nitrophenyl)-1H-imidazol-4-yl)-5-(trifluoromethoxy)phenol], `CNc1ccc([N+](=O)[O-])cc1-n1cnc(-c2ccc(C(F)(F)F)cc2O)c1` [Compound 22, 2-(1-(2-(methylamino)-5-nitrophenyl)-1H-imidazol-4-yl)-5-(trifluoromethyl)phenol] is 5.1-fold lower in EC50: 24.9 ± 6.15 nM for the first, 4.88 ± 0.79 nM for the second. The second is the more potent here.

First: CNc1ccc(S(C)(=O)=O)cc1-n1cnc(-c2ccc(C(F)(F)F)cc2O)c1 [Compound 23, 2-(1-(2-(methylamino)-5-(methylsulfonyl)phenyl)-1H-imidazol-4-yl)-5-(trifluoromethyl)phenol]
Second: CNc1ccc(C(=O)OC)cc1-n1cnc(-c2ccc(C(F)(F)F)cc2O)c1 [Compound 24, Methyl 3-(4-(2-hydroxy-4-(trifluoromethyl)phenyl)-1H-imidazol-1-yl)-4-(methylamino)benzoate]
The EC50 of the first is 84-fold lower: 5.14 ± 0.07 nM for the first, 432.86 ± 0.05 nM for the second. The first is the more potent here.

Going from `CNC(=O)c1ccc(NC)c(-n2cnc(-c3ccc(C(F)(F)F)cc3O)c2)c1` [Compound 25, 3-(4-(2-hydroxy-4-(trifluoromethyl)phenyl)-1H-imidazol-1-yl)-N-methyl-4-(methylamino)benzamide] to `CNc1ccc([N+](=O)[O-])cc1-n1cnc(-c2ccc(C(F)(F)F)cc2OC(C)=O)c1` [Compound 35, (1-(2-(methylamino)-5-nitrophenyl)-1H-imidazol-4-yl)-5-(trifluoromethyl)phenyl acetate], the EC50 falls from 45.6 ± 3.15 nM to 18.8 ± 3.65 nM (2.4-fold). The second is the more potent here.

First: CNc1c(Cl)cc([N+](=O)[O-])cc1-n1cnc(-c2ccc(C(F)(F)F)cc2O)c1 [Compound 26, 2-(1-(3-chloro-2-(methylamino)-5-nitrophenyl)-1H-imidazol-4-yl)-5-(trifluoromethyl)phenol]
Second: CNc1ccc([N+](=O)[O-])cc1-n1cnc(-c2ccc(C(F)(F)F)cc2OC)c1 [Compound 28, 2-(4-(2-methoxy-4-(trifluoromethyl)phenyl)-1H-imidazol-1-yl)-N-methyl-4-nitroaniline]
The EC50 of the first is 2.1-fold higher: 192 ± 17.2 nM for the first, 92.3 ± 12.3 nM for the second. The second is the more potent here.

`CNc1c(Cl)cc([N+](=O)[O-])cc1-n1cnc(-c2ccc(C#N)cc2)c1` [Compound 27, 4-(1-(3-chloro-2-(methylamino)-5-nitrophenyl)-1H-imidazol-4-yl)benzonitrile] and `CCOc1cc(C(F)(F)F)ccc1-c1cn(-c2cc([N+](=O)[O-])ccc2NC)cn1` [Compound 29, 2-(4-(2-ethoxy-4-(trifluoromethyl)phenyl)-1H-imidazol-1-yl)-N-methyl-4-nitroaniline] cannot be ordered by EC50: over 1000 nM for the first, over 1000 nM for the second.

First: CNc1ccc([N+](=O)[O-])cc1-n1cnc(-c2ccc(C(F)(F)F)cc2OCc2ccccc2)c1 [Compound 30, 2-(4-(2-(benzyloxy)-4-(trifluoromethyl)phenyl)-1H-imidazol-1-yl)-N-methyl-4-nitroaniline]
Second: CNc1ccc([N+](=O)[O-])cc1-n1cnc(-c2ccc(C(F)(F)F)cc2OC(=O)c2ccccc2)c1 [Compound 38, 2-(1-(2-(methylamino)-5-nitrophenyl)-1H-imidazol-4-yl)-5-(trifluoromethyl)phenyl benzoate]
The EC50 of the first is higher: over 1000 nM for the first, 16.9 ± 2.79 nM for the second.

`CNc1ccc([N+](=O)[O-])cc1-n1cnc(-c2ccc(C(F)(F)F)cc2OCCBr)c1` [Compound 31, 2-(4-(2-(2-bromoethoxy)-4-(trifluoromethyl)phenyl)-1H-imidazol-1-yl)-N-methyl-4-nitroaniline] and `CNc1ccc([N+](=O)[O-])cc1-n1cnc(-c2ccc(C(F)(F)F)cc2OCCCBr)c1` [Compound 32, 2-(4-(2-(3-bromopropoxy)-4-(trifluoromethyl)phenyl)-1H-imidazol-1-yl)-N-methyl-4-nitroaniline] cannot be ordered by EC50: over 1000 nM for the first, over 1000 nM for the second.

`CNc1ccc([N+](=O)[O-])cc1-n1cnc(-c2ccc(C(F)(F)F)cc2OCCOCCO)c1` [Compound 34, 2-(2-(2-(1-(2-(methylamino)-5-nitrophenyl)-1H-imidazol-4-yl)-5-(trifluoromethyl)phenoxy)ethoxy)ethanol] and `CNc1ccc([N+](=O)[O-])cc1-n1cnc(-c2ccc(C(F)(F)F)cc2OCCOCCOCCI)c1` [Compound 41, 2-(4-(2-(2-(2-(2-iodoethoxy)ethoxy)ethoxy)-4-(trifluoromethyl)phenyl)-1H-imidazole-1-yl)-N-methyl-4-nitroaniline] cannot be ordered by EC50: over 1000 nM for the first, over 1000 nM for the second.

First: CCCCCCCC(=O)Oc1cc(C(F)(F)F)ccc1-c1cn(-c2cc([N+](=O)[O-])ccc2NC)cn1 [Compound 36, 2-(1-(2-(methylamino)-5-nitrophenyl)-1H-imidazol-4-yl)-5-(trifluoromethyl)phenyl octanoate]
Second: CCCCCCCCCCCC(=O)Oc1cc(C(F)(F)F)ccc1-c1cn(-c2cc([N+](=O)[O-])ccc2NC)cn1 [Compound 37, 2-(1-(2-(methylamino)-5-nitrophenyl)-1H-imidazol-4-yl)-5-(trifluoromethyl)phenyl dodecanoate]
The EC50 of the first is 2-fold lower: 56.3 ± 7.31 nM for the first, 113 ± 12.7 nM for the second.

Going from `CNc1ccc([N+](=O)[O-])cc1-n1cnc(-c2ccc(C(F)(F)F)cc2OC(=O)/C=C/c2ccccc2)c1` [Compound 39, (1-(2-(methylamino)-5-nitrophenyl)-1H-imidazol-4-yl)-5-(trifluoromethyl)phenyl cinnamate] to `CNc1ccc([N+](=O)[O-])cc1-n1cnc(-c2ccc(C(F)(F)F)cc2OCC(N)=O)c1` [Compound 42, (2-(1-(2-(methylamino)-5-nitrophenyl)-1H-imidazo-4-yl)-5-(trifluoromethyl)phenoxy)acetamide], the EC50 rises from 12 ± 2.67 nM to over 1000 nM.

Compound `CNc1ccc([N+](=O)[O-])cc1-n1cnc(-c2ccc(C(F)(F)F)cc2OCCNC(=O)CCCC[C@@H]2SC[C@@H]3NC(=O)N[C@@H]32)c1` [Compound 44, N-(2-(2-(1-(2-(methylamino)-5-nitrophenyl)-1H-imidazol-4-yl)-5-(trifluoromethyl)phenoxyl)ethyl)-5-((3AS,4S,6AR)-2-oxohexahydro-1H-thieno[3,4-d]imidazol-4-yl)pentanamide] has an EC50 of 764 ± 10.2 nM.

In the case of `FC(F)(F)c1ccc(-c2csc(-c3cc(C(F)(F)F)cc(C(F)(F)F)c3)n2)cc1` [Compound 7, 2-(3,5-bis(trifluoromethyl)phenyl)-4-(4-(trifluoromethyl)phenyl)thiazole], the “TLR1/2 activation activity EC50” value is reported as “NA[†]”.
In the case of `Oc1cc(C(F)(F)F)ccc1-c1csc(-c2ccccc2)n1` [Compound 13, 2-(2-phenylthiazol-4-yl)-5-(trifluoromethyl)phenol], the “TLR1/2 activation activity EC50” value is reported as “NA[†]”.
`Oc1cc(C(F)(F)F)ccc1-c1csc(-c2cccc(C(F)(F)F)c2)n1` [Compound 14, 5-(trifluoromethyl)-2-(2-(3-(trifluoromethyl)phenyl)thiazol-4-yl)phenol] was tested, and the “TLR1/2 activation activity EC50” value was “NA[†]”.
In the case of `Oc1cc(C(F)(F)F)ccc1-c1csc(-c2cc(C(F)(F)F)cc(C(F)(F)F)c2)n1` [Compound 17, 2-(2-(3,5-bis(trifluoromethyl)phenyl)thiazol-4-yl)-5-(trifluoromethyl)phenol], the “TLR1/2 activation activity EC50” value is reported as “NA[†]”.

same assay, conditions: even at a low concentration (15 nM)

With `CNc1ccc([N+](=O)[O-])cc1-n1cnc(-c2ccc(C(F)(F)F)cc2O)c1` [Compound 22, 2-(1-(2-(methylamino)-5-nitrophenyl)-1H-imidazol-4-yl)-5-(trifluoromethyl)phenol] the “signal intensity of TLR1/2 alkaline phosphatase (SEAP)” value was “significantly activate”.
